According to US20080154102A1, “Intraoperative imaging methods” (priority 2006, published 2008):

Assays:
[1] = test system: common bile duct, vasculature, coronary artery, myocardium; assay: Multi-wavelength fluorescence imaging with MB and ICG; assay type: in vivo, pigs; details: pig, ICG 800 nm, MB 700 nm
Description: Therefore, MB was used to visualize CBD in an anesthetized pig, while ICG was used to visualize vasculature.
To evaluate the possibility of multi-wavelength fluorescent imaging, ICG and methylene blue were used.
1 mg/kg methylene blue IV injection was followed 30 min after by 0.03 mg/kg ICG IV injection. […] NIR camera exposure time was 100 msec.
Next, one of the diagonal branches of the coronary artery (D2) was clamped (white arrow), and then 1 mg/kg of methylene blue was injected intravenously; see the second row of images. Just after releasing the clamp, 0.03 mg/kg ICG was injected intravenously. […] The right-most image in the second row was created by merging the image of the coronary arteriography using methylene blue at clamping D2 and the image using ICG after declamping D2.

parathyroid gland = assay: Parathyroid gland imaging using methylene blue; assay type: in vivo; details: 2 mg/kg over 15 minutes, along with NaHCO3
Description: To determine whether MB fluorescence emissions could be used to image the parathyroid gland, 2 mg/kg MB was administered over 15 minutes, along with NaHCO3, prior to surgery.

ureter = assay: Ureteral mapping with methylene blue in pigs; assay type: in vivo; details: preclinical studies, in some cases
Description: In anesthetized 3 pigs, 1 mg/kg of methylene blue was injected intravenously and then the abdomen was opened surgically and ureter was identified by imaging. For pelvic arteriography, 0.06 mg/kg ICG (75 nmol/kg) was injected intravenously.

[2] = test system: coronary arteries and myocardium; assay: Angiographic and myocardial perfusion imaging in rats; assay type: in vivo
Description: (§1) Male Sprague-Dawley, 300 g rats obtained from Charles River Laboratories (Wilmington, Mass.) were anesthetized with 65 mg/kg IP pentobarbital. 30 kg adult female Yorkshire pigs (E.M. Parsons & Sons, Hadley, Mass.) were induced with 4.4 mg/kg intramuscular Terazol (Fort Dodge Labs, Fort Dodge, Iowa). Pigs were intubated and maintained with 1.5-2% isoflurane.
(§2) In anesthetized rats, 0.1, 0.5 and 1 mg/kg MB were injected intravenously, and then images were taken during 15 min after injection. Signal to background ratio (SBR) (the signal of left anterior descending branch of coronary artery (LAD) relative to that of chest wall, and the signal of myocardium relative to that of chest wall) was quantified using the same region of interest (ROI) through entire observation. In anesthetized pigs, 100 μL/kg of 0.5% methylene blue (1.6 μmol/kg) was injected intravenously and then the hearts were observed using the imaging system described herein. For multi-wavelength fluorescence imaging, 0.25 ml of 100 μM ICG (75 nmol/kg) was injected intravenously in rats and 0.06 mg/kg ICG (75 nmol/kg) in pigs.
The system was adjusted to account for the optical properties of methylene blue. Briefly, the light source of the original system is composed of a white light source and a near-infrared light source. The surgical field is illuminated with both lights, and its excitation fluence rate is 5 mW/cm^2. White light and near-infrared images were able to be captured separately using a dichroic filter cube set, and these images could be merged. Images were captured and refreshed 15 times a second.
The system was modified in 3 ways for use with MB. First, the white lights were filtered with HQ675SP (Chroma Technology, Brattleboro, Vt.). Second, 4 pairs of 400 mA, 660 nm LEDs were added and filtered with HQ650/45X (chroma.) instead of the near-infrared light source. Excitation fluence rate with this new light source is 1 mW/cm^2. Third, the dichroic filter and emission filter were changed to 680 dcxr (chroma.), HQ700/35 (chroma.), respectively.

common bile duct [3] = assay: Cholangiographic imaging with methylene blue in pigs; assay type: in vivo
Description: In anesthetized pigs, bile duct was visualized by intravenous injection of 100 μL/kg of 1% MB, or direct cannulation into the common bile duct for injection of 50 μM of MB. Fluorescence intensities of bile duct, liver (right lobe), and abdominal wall were measured at 3, 5, 10, 20, and 30 minutes following injection. For hepatic arteriography and portography, 0.06 mg/kg ICG (75 nmol/kg) is injected intravenously.

[4] = Environment-, concentration- and pH-dependence of MB fluorescence; assay type: physicochemical
Description: For the experiment shown in FIG. 1A, pure methylene blue powder was dissolved in phosphate-buffered saline (pH 7.4), 100% fetal bovine serum, or absolute methanol, at the concentration shown, and fluorescence intensity (arbitrary values) measured.
For this experiment, pure methylene blue powder was dissolved in PBS, FBS, or methanol, at the concentrations shown in FIGS. 1A-C, the spectrum of its absorbance and fluorescence emission obtained, and the peak of each identified.
Finally, the pH dependence of MB was examined, by dissolving MB in PBS (pH 6), Ascorbic Acid, HCl, and a NaHCO3-buffered solution. […] This is an important consideration because intermolecular quenching and internal absorption often limit the usable dose range of fluorescent contrast agents.

[5] = test system: coronary arteries and myocardium; assay: Angiographic and myocardial perfusion imaging in pigs; assay type: in vivo
Description: as §1, §2
The system was adjusted to account for the optical properties of methylene blue. Briefly, the light source of the original system is composed of a white light source and a near-infrared light source. The surgical field is illuminated with both lights, and its excitation fluence rate is 5 mW/cm^2. […]

Absorbance spectrometry = assay type: physicochemical
Description: (§3) Absorbance spectrometry was performed with a 1-cm path length quartz cuvette in a USB2000 fiber-optic spectrometer (Ocean Optics, Dunedin, Fla.). Fluorescence spectrometry was performed with a 1-cm path length, 1.5 mL disposable methacrylate cuvette (Fisher Scientific, Hampton, N.H.) in a HR2000 fiber-optic spectrometer, and CUV-ALL-UV four-way cuvette holder (Ocean Optics), using a 655 nm laser diode light source (OPCOM O.E. Inc., Xiamen, China) with maximum output less than 5 mW. Data acquisition was performed with a computer using an OOI-Base32 spectrometer operating software package (Ocean Optics). The spectral range of the USB2000-FL spectrometer was from 350 to 1000 nm with spectral resolution of 7.6 nm, and that of the HR2000 spectrometer was from 200 to 1100 nm with a spectral resolution of 6.7 nm.

[6] = Fluorescence spectrometry and fluorescence quantum yield; assay type: physicochemical
Description: as §3
Fluorescence intensity was measured in each solvent (PBS, FBS, and methanol) at each concentration of the dye to determine the effect of the methylene blue concentration and solvents on total fluorescence yield. Fluorescence quantum yields of methylene blue in PBS, FBS, and methanol were calculated using oxazine725 in ethylene glycol (quantum yield: 19%) as a calibration standard, under the conditions of matched absorbance of methylene blue in each solvent.

common bile duct [7] = assay: Cholangiographic imaging with methylene blue in rats; assay type: in vivo; details: 1 mg/kg iv
Description: In anesthetized rats, 100 μL/kg of 1% MB (1 mg/kg) was injected intravenously via penile vein. A simultaneous color video/NIR fluorescence intraoperative imaging system was employed for quantification of fluorescence images. For multi-wavelength fluorescence imaging, 0.25 ml of 100 uM ICG (75 nmol/kg) was injected intravenously in rat and hepatic arteriography and portography can be seen.

[8] = clinical use; cited from earlier work
thoracic duct = assay: Thoracic duct mapping in pigs; assay type: in vivo; details: 5 mL of 1% into inguinal lymph node
Description: In anesthetized pigs, 5 mL of 1% methylene blue was injected into an inguinal lymph node, then the thoracic duct was observed.

- fluorescence in acidic solutions ([4]; Ascorbic Acid, HCl): essentially no fluorescence
- fluorescence at the more basic pH ([4]; PBS (pH 6), NaHCO3-buffered solution): significant fluorescence
- pH favoring the fluorescent methylene blue form ([4]; equilibrium with leucomethylene blue): ≥ 6
- concentration of peak fluorescence intensity ([4]; intermediate concentrations): 4 to 50 µM
- Excitation Wavelength Maximum, (FBS) (Absorbance spectrometry; in FBS): 666 nm
- Molar Extinction Coefficient, (FBS) (Absorbance spectrometry; in FBS): 86500 M⁻¹ cm⁻¹
- Excitation Wavelength Maximum, PBS (Absorbance spectrometry; in PBS): 665 nm
- Molar Extinction Coefficient, PBS (Absorbance spectrometry; in PBS): 71500 M⁻¹ cm⁻¹
- Excitation Wavelength Maximum, [MtOH] (Absorbance spectrometry; in methanol): [653] nm
- Molar Extinction Coefficient, [MtOH] (Absorbance spectrometry; in methanol): [71500] M^−1cm^−1
- Emission Wavelength Maximum, (FBS) ([6]; in FBS): 685 (685) nm
- Fluorescence Quantum Yield, (FBS) ([6]; in FBS): 2.5%
- Emission Wavelength Maximum, PBS ([6]; in PBS): 685 (685) nm
- Fluorescence Quantum Yield, PBS ([6]; in PBS): 5.5%
- Emission Wavelength Maximum, [MtOH] ([6]; in methanol): [681] nm
- Fluorescence Quantum Yield, [MtOH] ([6]; in methanol): [9.5] %
- emission wavelength of MB ([6]; peak shifts as a function of dye concentration, listed as MB): 690-700 nm
SMILES: CN(C)c1ccc2nc3ccc(=[N+](C)C)cc-3sc2c1 [Methylene Blue, methylene blue]
- structure shown in two-channel NIR imaging [1]: shows the CBD
- visibility of the parathyroid (parathyroid gland): visible
- performance in the ureter (ureter): less than optimal performance
- detection of peripheral branches and coronary vein [2]: not detectable
- intravascular (arterial) signals ([2]; 0.1 mg/kg intravenously): not detected
- detection of coronary arteries ([2]; 0.5 and 1.0 mg/kg intravenously): could be detected
- homogenous signal from the heart wall ([2]; all loading doses): detectable
- CBD visualization after direct retrograde administration (common bile duct [3]; direct cannulation into CBD): successfully visualized the CBD
- identification of intrahepatic bile duct by fluorescence (common bile duct [3]; during hepatic dissection): not identifiable
- detection of common bile duct (common bile duct [3]; intravenous): detectable
- signal of myocardium distal to occlusion vs well-perfused myocardium ([5]; ligation of diagonal branch of left anterior descending artery): five-fold lower signal
- average SBR of whole heart wall fluorescence ([5]; pig, intravenous injection via external jugular vein): about 1.5
- dye stacking in the liver (common bile duct [7]): No dye stacking in the liver was observed
- time of maximal ratio of CBD intensity relative to pancreas and liver (common bile duct [7]): around 10 minutes
- time ratio of CBD intensity stayed steady after injection (common bile duct [7]): at least 30 minutes
- time until CBD detectable after intravenous injection (common bile duct [7]): 2 to 3 min
- dose that sometimes causes severe adverse reactions (methemoglobinaemia or anaphylaxis) [8]: 7.5 mg/kg
- thoracic duct in the color image (thoracic duct): very faint blue color
- thoracic duct in the fluorescence image (thoracic duct): clearly visualized in the fluorescence image
